Literature values in patent US6423864B1, “Purification of N-[N-(3,3-dimethylbutyl)-L-α-aspartyl]-L-phenylalanine 1-methyl ester via crystallization” (The NutraSweet Company, priority 1998, dated 2002).

Settings: relative to sucrose; background statement

In the case of COC(=O)[C@H](Cc1ccccc1)NC(=O)[C@H](CC(=O)O)NCCC(C)(C)C [neotame, N-[N-(3,3-dimethylbutyl)-L-α-aspartyl]-L-phenylalanine 1-methyl ester], the “sweetness potency (sweeter than sucrose)” value is given as “about 8000 ×”.
